Laboratory results as given in patent US6987114B1, “Antiviral pyrimidinedione derivatives and process for the preparation thereof” (Samjin Pharmaceutical Co., Ltd, priority 1999, dated 2006).
≈ marks a conversion by molar mass, not a printed value. Read-outs that look alike come from different tables or passages of the source.

Key:
HIV = assay: microbe, parasite or virus in culture; assay type: cell-based
Procedure: Anti-HIV activity tests in vitro of the compounds according to the present invention were performed as described in J. Med. Chem, 34, 357, 1991. Inhibition by the compounds of virus-induced cytotoxic effect in MT-4 cells was measured as follows.
(§1) MT-4 cells were suspended in culture media at 2.5×10^5 cells/ml and infected with 1000 CCID50 (50% cell culture infective dose) of HIV. Immediately after virus infection, 100 μl of cell suspension was brought into each well of a flat-bottomed microtitray containing various concentrations of the test compounds. After 4 or 5 days incubation at 37° C., efficacy of the compounds was determined by the MTT method. Cytotoxicity of the compounds was assessed in parallel with their antiviral activity, based on viability of mock-infected host cells as determined by the MTT method.

mock-infected MT-4 cells = assay: Cytotoxicity based on viability of mock-infected host cells (MTT method); assay type: cell-based; settings: mock-infected MT-4 cells, MTT method, 4 or 5 days at 37° C.
Procedure: as §1

[1] = Human immunodeficiency virus 1, MT4, HIV-infected MT-4 cells, MTT method, 4 or 5 days at 37° C., read-out: ED50 (the source's name)
[2] = Human immunodeficiency virus 1, MT4, read-out: ED50

SMILES | EC50 (HIV; [1]) [µg/mL] | CD50 (mock-infected MT-4 cells) [µg/mL] | melting point [°C] | EC50 (HIV; [2]) [µg/mL]
CCc1c(C(=O)c2cc(C)cc(C)c2)n(CC2CC2)c(=O)[nH]c1=O [Example 5, 1-(Cyclopropyl)methyl-5-ethyl-6-(3,5-dimethylbenzoyl)-2,4-pyrimidinedione] | 0.0011 (≈ 0.00337 µM) | 39.4 | 234 to 236 | –
Cc1cc(C)cc(C(=O)c2c(C(C)C)c(=O)[nH]c(=O)n2Cc2ccc3c(c2)C(=O)c2ccccc2C3=O)c1 [Example 108, 1-(Anthraquinon-2-ylmethyl)-5-isopropyl-6-(3,5-dimethylbenzoyl)-2,4-pyrimidinedione] | 0.017 (≈ 0.0336 µM) | 14.41 | 156 to 158 | –
CCc1c(Sc2cc(C)cc(C)c2)n(Cc2ccccn2)c(=O)[nH]c1=O [Example 109, 1-(Pyridin-2-ylmethyl)-5-ethyl-6-(3,5-dimethylphenyl)thio-2,4-pyrimidinedione] | 0.015 (≈ 0.0408 µM) | 29.72 | 217 to 219 | –
Cc1cc(C)cc(C(=O)c2c(C(C)C)c(=O)[nH]c(=O)n2Cc2ccccc2)c1 [Example 24, 1-Benzyl-5-isopropyl-6-(3,5-dimethylbenzoyl)-2,4-pyrimidinedione] | 0.0009 (≈ 0.00239 µM) | 5.20 | 188 to 190 | –
CCc1c(Oc2cc(C)cc(C)c2)n(Cc2cccc(C#N)c2)c(=O)[nH]c1=O [Example 45, 1-(3-Cyanobenzyl)-5-ethyl-6-(3,5-dimethylphenoxy)-2,4-pyrimidinedione] | – | >100.00 | 213 to 214 | 0.061 (≈ 0.162 µM)
CCc1c(Sc2cc(C)cc(C)c2)n(Cc2cccnc2)c(=O)[nH]c1=O [Example 115, 1-(Pyridin-3-ylmethyl)-5-ethyl-6-(3,5-dimethylphenyl)thio-2,4-pyrimidinedione] | – | 16.63 | 202 to 205 | 0.014 (≈ 0.0381 µM)
Cc1cc(C)cc(Sc2c(C(C)C)c(=O)[nH]c(=O)n2Cc2cc(F)cc(F)c2)c1 [Example 74, 1-(3,5-Difluorobenzyl)-5-isopropyl-6-(3,5-dimethylphenyl)thio-2,4-pyrimidinedione] | 0.013 (≈ 0.0312 µM) | 10.50 | 203 to 205 | –
COc1cc(Cn2c(Oc3cc(C)cc(C)c3)c(C(C)C)c(=O)[nH]c2=O)cc(OC)c1 [Example 58, 1-(3,5-Dimethoxybenzyl)-5-isopropyl-6-(3,5-dimethylphenoxy)-2,4-pyrimidinedione] | 0.51 (≈ 1.2 µM) | >100.00 | 162 to 164 | –
CCc1c(C(=O)c2cc(C)cc(C)c2)n(Cc2cc(C(F)(F)F)cc(C(F)(F)F)c2)c(=O)[nH]c1=O [Example 65, 1-[3,5-Bis(Trifluoromethyl)benzyl]-5-ethyl-6-(3,5-dimethyl-benzoyl)-2,4-pyrimidinedione] | > 100 | >100.00 | 241 to 243 | –
CC(=O)Cn1c(C(=O)c2cc(C)cc(C)c2)c(C(C)C)c(=O)[nH]c1=O [Example 160, 1-(Acetonyl)-5-isopropyl-6-(3,5-dimethylbenzoyl)-2,4-pyrimidinedione] | – | 14.0 | 181 to 183 | 0.0005 (≈ 0.00146 µM)
CCc1c(C(=O)c2cc(C)cc(C)c2)n(Cc2ccccc2C#N)c(=O)[nH]c1=O [Example 41, 1-(2-Cyanobenzyl)-5-ethyl-6-(3,5-dimethylbenzoyl)-2,4-pyrimidinedione] | 0.003 (≈ 0.00774 µM) | 2.56 | 257 to 259 | –
CCc1c(Sc2cc(C)cc(C)c2)n(CC2CC2)c(=O)[nH]c1=O [Example 1, 1-(Cyclopropyl)methyl-5-ethyl-6-(3,5-dimethylphenyl)thio-2,4-pyrimidinedione] | 0.0027 (≈ 0.00817 µM) | 4.75 | 161 to 163 | –
Cc1cc(C)cc(Cn2c(Oc3cc(C)cc(C)c3)c(C(C)C)c(=O)[nH]c2=O)c1 [Example 52, 1-(3,5-Dimethylbenzyl)-5-isopropyl-6-(3,5-dimethyl-phenoxy)-2,4-pyrimidinedione] | – | 8.20 | 175 to 177 | 0.098 (≈ 0.25 µM)
Cc1cc(C)cc(Sc2c(C(C)C)c(=O)[nH]c(=O)n2Cc2cc(C(F)(F)F)cc(C(F)(F)F)c2)c1 [Example 62, 1-[3,5-Bis(trifluoromethyl)benzyl]-5-isopropyl-6-(3,5-dimethylphenyl)thio-2,4-pyrimidinedione] | > 100 | >100.00 | 183 to 185 | –
CCc1c(Oc2cc(C)cc(C)c2)n(Cc2ccccc2C#N)c(=O)[nH]c1=O [Example 39, 1-(2-Cyanobenzyl)-5-ethyl-6-(3,5-dimethylphenoxy)-2,4-pyrimidinedione] | 0.619 (≈ 1.65 µM) | 60.47 | 267 to 270 | –
Cc1cc(C)cc(C(=O)c2c(C(C)C)c(=O)[nH]c(=O)n2Cc2cc(C(F)(F)F)cc(C(F)(F)F)c2)c1 [Example 66, 1-[3,5-Bis(Trifluoromethyl)benzyl]-5-isopropyl-6-(3,5-dimethyl-benzoyl)-2,4-pyrimidinedione] | 1.75 (≈ 3.41 µM) | 8.14 | 178 to 180 | –
CCc1c(Sc2cc(C)cc(C)c2)n(Cc2ccc3c(c2)C(=O)c2ccccc2C3=O)c(=O)[nH]c1=O [Example 103, 1-(Anthraquinon-2-ylmethyl)-5-ethyl-6-(3,5-dimethyl-phenyl)thio-2,4-pyrimidinedione] | > 85.2 | 85.19 | 195 to 197 | –
Cc1cc(C)cc(Sc2c(C(C)C)c(=O)[nH]c(=O)n2Cc2cccnc2)c1 [Example 116, 1-(Pyridin-3-ylmethyl)-5-isopropyl-6-(3,5-dimethylphenyl)thio-2,4-pyrimidinedione] | – | 10.09 | 159 to 161 | 0.003 (≈ 0.00786 µM)
Cc1cc(C)cc(Sc2c(C(C)C)c(=O)[nH]c(=O)n2Cc2nc3ccccc3o2)c1 [Example 146, 1-(Benzoxazol-2-ylmethyl)-5-isopropyl-6-(3,5-dimethylphenyl)thio-2,4-pyrimidinedione] | – | >100.00 | 107 to 109 | 1.02 (≈ 2.42 µM)
Cc1cc(C)cc(Sc2c(C(C)C)c(=O)[nH]c(=O)n2Cc2cc(F)ccc2F)c1 [Example 68, 1-(2,5-Difluorobenzyl)-5-isopropyl-6-(3,5-dimethylphenyl)thio-2,4-pyrimidinedione] | 0.005 (≈ 0.012 µM) | 4.15 | 192 to 194 | –
CCc1c(C(=O)c2cc(C)cc(C)c2)n(Cc2cc(C)cc(C)c2)c(=O)[nH]c1=O [Example 53, 1-(3,5-Dimethylbenzyl)-5-ethyl-6-(3,5-dimethylbenzoyl)-2,4-pyrimidinedione] | – | 2.50 | 188 to 190 | 0.014 (≈ 0.0359 µM)
COc1cc(Cn2c(Sc3cc(C)cc(C)c3)c(C(C)C)c(=O)[nH]c2=O)cc(OC)c1 [Example 56, 1-(3,5-Dimethoxybenzyl)-5-isopropyl-6-(3,5-dimethyl-phenyl)thio-2,4-pyrimidinedione] | 0.21 (≈ 0.477 µM) | 11.34 | 157 to 160 | –
CCc1c(C(=O)c2cc(C)cc(C)c2)n(Cc2cc(Cl)cc(Cl)c2)c(=O)[nH]c1=O [Example 83, 1-(3,5-Dichlorobenzyl)-5-ethyl-6-(3,5-dimethylbenzoyl)-2,4-pyrimidinedione] | – | 3.10 | 223 to 225 | 0.021 (≈ 0.0487 µM)
Cc1cc(C)cc(C(=O)c2c(C(C)C)c(=O)[nH]c(=O)n2Cc2cccc(Br)n2)c1 [Example 130, 1-(2-Bromopyridin-6-ylmethyl)-5-isopropyl-6-(3,5-dimethyl-benzoyl)-2,4-pyrimidinedione] | 0.015 (≈ 0.0329 µM) | 8.85 | 218 to 220 | –
CCc1c(Sc2cc(C)cc(C)c2)n(Cc2c3ccccc3cc3ccccc23)c(=O)[nH]c1=O [Example 97, 1-(Anthracen-9-ylmethyl)-5-ethyl-6-(3,5-dimethylphenyl)thio-2,4-pyrimidinedione] | – | 0.59 | 219 to 220 | > 0.59
COc1cccc(Cn2c(Sc3cc(C)cc(C)c3)c(C(C)C)c(=O)[nH]c2=O)c1 [Example 26, 1-(3-Methoxybenzyl)-5-isopropyl-6-(3,5-dimethylphenyl)thio-2,4-pyrimidinedione] | 0.003 (≈ 0.00731 µM) | 9.53 | 135 to 137 | –
Cc1cc(C)cc(Oc2c(C(C)C)c(=O)[nH]c(=O)n2Cc2ccccn2)c1 [Example 112, 1-(Pyridin-2-ylmethyl)-5-isopropyl-6-(3,5-dimethylphenoxy)-2,4-pyrimidinedione] | 0.029 (≈ 0.0794 µM) | >100.00 | 220 to 223 | –
CCc1c(C(=O)c2cc(C)cc(C)c2)n(Cc2cc(F)ccc2F)c(=O)[nH]c1=O [Example 71, 1-(2,5-Difluorobenzyl)-5-ethyl-6-(3,5-dimethylbenzoyl)-2,4-pyrimidinedione] | 0.004 (≈ 0.01 µM) | >100.00 | 135 to 137 | –
CCc1c(Sc2cc(C)cc(C)c2)n(Cc2cc(Cl)cc(Cl)c2)c(=O)[nH]c1=O [Example 79, 1-(3,5-Dichlorobenzyl)-5-ethyl-6-(3,5-dimethylphenyl)thio-2,4-pyrimidinedione] | – | 24.77 | 180 to 182 | 0.052 (≈ 0.119 µM)
